Data on 1 sequence can be found in patent publication US20200291127A1, “ANTIBODIES AND METHODS OF USE THEREOF” (AbeXXa Biologics, Inc., priority 2020, published 2020).

In this assay the target is HLA-E*0103 (Homo sapiens, UniProt P13747). The experiment in a line: HLA-E peptide refolding into monomer complexes. In kind it is biochemical.

For YLLPAIVHI, the “refolding of HLA-E*0103/peptide” value was “successfully refold HLA-E*0103/peptide into stable monomer complexes”.
